# Measurements from patent US8236509B2, “Method for preparing antibody monolayers which have controlled orientation using peptide hybrid” (Korea Research Institute of Bioscience and Biotechnology, priority 2007, dated 2012).
# “Also recorded” adds a separate entry of the source.
# Columns and labels:
# [1] = test system: human, rabbit, mouse and goat antibodies; assay: SPR binding capacity on peptide-hybrid-treated CM-5 Au sensor chip, different antibodies; settings: antibody 5 μg/ml in PBS
# Method: (§1) Then, PBS containing 100 μM of the peptide hybrid was spilled thereon at the same speed for 30 minutes. […] The surface area remaining non-reacted with the peptide hybrid was inactivated by using 1 M of ethanolamine solution (pH 8.5).
# [2] = test system: human originated IgG (HIgGs 1-3); assay: SPR binding capacity on peptide-hybrid-treated CM-5 Au sensor chip
# Method: as §1
# [3] = target: T1, rabbit originated IgG (Oryctolagus cuniculus, UniProt P01870); assay: as above
# T1 construct: purchased Sigma-Aldrich (USA)
# Method: as §1
# [4] = test system: MIgG3; assay: SPR binding capacity, antibody isotypes; design: species or system mouse; settings: CM-5 Au sensor chip
# Method: as §1
# [5] = test system: MIgG2; assay: SPR binding capacity, antibody isotypes; design: species or system mouse; settings: CM-5 Au sensor chip
# Method: as §1
# [6] = test system: MIgGA; assay: SPR binding capacity, antibody isotypes; design: species or system mouse; settings: CM-5 Au sensor chip
# Method: as §1
# [7] = target: T2, rabbit IgG (Oryctolagus cuniculus, UniProt P01870); assay: Cy3-labeled antibody binding to glass plate surface-treated with peptide hybrid (fluorescence); design: purchased Sigma-Aldrich (USA); settings: fluorescence image
# Method: (§2) The glass plate was treated with a mixed solution of 95% sulfuric acid and 5% hydrogen peroxide (V/V 3:1) at 60° C. for 30 minutes, followed by washing with distilled water and ethanol. The washed glass plate was soaked in 1% APTS, followed by reaction for 4 hours at room temperature to introduce amine group. The amine group introduced glass plate was reacted in 1 M succinic anhydride-DMF solution at 37° C. for 4 hours to generate carboxyl group on the glass plate. The glass plate was washed with distilled water and ethanol and dried using nitrogen gas and then stored in a vacuum drier. The carboxyl group introduced glass plate was treated with a mixed solution of 0.1 M EDC and 0.025 M NHS for 15 minutes to activate its surface. The activated glass plate was washed with distilled water and dried using nitrogen gas. The peptide hybrid for protein immobilization of 1a was dissolved in PBS containing 40% glycerol at the final concentration of 0.5 mg/ml, which was dropped on the glass plate by 1 μl per each drop, followed by reaction for 2 hours. The non-reacted active ester remaining on the glass plate was inactivated by using 1 M of ethanolamine (pH 8.5) and washed with PBS. […]
# [8] = Storage stability of glass plate surface-treated with peptide hybrid; format: physicochemical; settings: several months storage at room temperature
# Method: The glass plate was treated with a mixed solution of 95% sulfuric acid and 5% hydrogen peroxide (V/V 3:1) at 60° C. for 30 minutes, followed by washing with distilled water and ethanol. The washed glass plate was soaked in 1% APTS, followed by reaction for 4 hours at room temperature to introduce amine group. The amine group introduced glass plate was reacted in 1 M succinic anhydride-DMF solution at 37° C. for 4 hours to generate carboxyl group on the glass plate. The glass plate was washed with distilled water and ethanol and dried using nitrogen gas and then stored in a vacuum drier. The carboxyl group introduced glass plate was treated with a mixed solution of 0.1 M EDC and 0.025 M NHS for 15 minutes to activate its surface. The activated glass plate was washed with distilled water and dried using nitrogen gas. The peptide hybrid for protein immobilization of 1a was dissolved in PBS containing 40% glycerol at the final concentration of 0.5 mg/ml, which was dropped on the glass plate by 1 μl per each drop, followed by reaction for 2 hours. The non-reacted active ester remaining on the glass plate was inactivated by using 1 M of ethanolamine (pH 8.5) and washed with PBS.
# The Cy3 labeled antibody solution was dropped on the glass plate surface-treated with the hybrid of 1a by 50 μl per each drop, followed by reaction for one hour at room temperature. […]
# [9] = target: BSA (Bos taurus, UniProt P02769); assay: SPR binding capacity on peptide-hybrid-treated CM-5 Au sensor chip (control protein)
# Method: as §1
# [10] = test system: HIgG1; assay: SPR binding capacity, antibody isotypes; design: species or system human; settings: CM-5 Au sensor chip
# Method: as §1
# [11] = test system: HIgG3; assay: SPR binding capacity, antibody isotypes; design: species or system human; settings: CM-5 Au sensor chip
# Method: as §1
# [12] = test system: HIgG2; assay: SPR binding capacity, antibody isotypes; design: species or system human; settings: CM-5 Au sensor chip
# Method: as §1
# [13] = test system: goat originated IgG; assay: Antibody binding to magnetic micro beads surface-treated with peptide hybrid (PAGE); settings: antibody 0.1 mg/ml, bead 2 mg/ml
# Method: (§3) The surface of the magnetic micro bead containing a carboxyl group was activated by loading 25 mM of MES (pH 6) containing NHS (0.4 M) and EDC (0.2 M). Only magnetic micro bead was recovered by using a magnet and the activated magnetic micro bead was reacted with 0.2 mg/ml of the peptide hybrid of 1a at room temperature for one hour. The activated magnetic micro bead was reacted with PBS alone for the control group. Non-reacted active ester group was inactivated by using 1 M of ethanolamine (pH 8.5). Both the magnetic micro bead with the peptide hybrid of 1a attached and the magnetic micro bead without the peptide hybrid of 1a were repeatedly washed by PBS and diluted in PBS (final concentration: 5 mg/ml).
# (§4) To confirm the binding of the magnetic micro bead adhered with the peptide hybrid of 1a to the antibody, 2 mg/ml (final concentration) of the magnetic micro bead and 0.1 mg/ml of the antibody used in Example <3-2> were mixed to induce binding reaction. After inducing reaction for one hour at room temperature, the magnetic micro bead was dragged down to the bottom of the vessel by using a magnet and the supernatant was eliminated. This process was repeated five times to remove the non-reacted antibodies. The magnetic micro bead reacted with the antibody was added in PAGE loading buffer containing a reducing agent (2-mercaptoethanol), which was heated to separate the antibody chain from the magnetic micro bead, followed by PAGE.
# (§5) The antibody bound to the magnetic micro bead was quantified by using 12% polyacrylamide gel containing 10% SDS. Particularly, 20 μl of PBS containing 2% micro bead was mixed with 5 μl of sample buffer (pH 6.8; 60 mM Tris-HCl, 25% glycerol, 2% SDS, 14.4 mM 2-mercaptoethanol, 0.1% bromophenol blue, H2O), followed by heating at 90° C. for 10 minutes. 15 μl of the sample was placed on each well of polyacrylamide gel. 200 V of voltage was applied thereto at room temperature for one hour to migrate sample, followed by dipping the gel in the staining solution (0.5% coomassie blue, 45% methanol, 10% acetic acid solution) at room temperature for 30 minutes. Upon completion of staining, the gel was transferred into the destaining solution (10% methanol, 10% acetic acid solution), followed by stirring at room temperature for 3 hours. The excessive staining reagent was eliminated by washing.
# [14] = target: T1, rabbit originated IgG; assay: as above; settings: antibody 0.1 mg/ml, bead 2 mg/ml
# Method: as §3, §4, §5
# [15] = test system: mouse originated IgG; assay: as above; settings: antibody 0.1 mg/ml, bead 2 mg/ml
# Method: as §3, §4, §5
# [16] = test system: human originated HIgG; assay: as above; settings: antibody 0.1 mg/ml, bead 2 mg/ml
# Method: as §3, §4, §5
# [17] = test system: goat IgG; assay: Cy3-labeled antibody binding to glass plate surface-treated with peptide hybrid (fluorescence); settings: fluorescence image
# Method: as §2
# [18] = test system: MIgG (mixture of MIgG 1-MIgG 3); assay: as above; design: species or system mouse; settings: fluorescence image
# Method: as §2
# [19] = test system: CRP; settings: SPR, CRP 5 μg/ml, anti-CRP antibody immobilized via the hybrid
# Method: Then, PBS containing CRP at the same concentration as the above was spilled thereon, followed by measuring the antigen-antibody binding by surface plasmon resonance (SPR) using Biacore 3000. The surface of the chip was recovered by 20 mM NaOH solution for the repeat of the experiment to measure the antigen-antibody binding.
# A buffer containing 0.2 M EDC and 0.05 M NHS was spilled on the dextran CM-5 Au sensor chip (BIacore AB, Sweden) at the speed of 7 μl/minute to activate carboxyl group on the surface of the sensor chip. Then, PBS containing 5 μg/ml of anti-CRP antibody was spilled thereon for 30 minutes at the same speed. The antibody was bound via the reaction of the terminal amine group with the carboxyl group on the sensor chip activated as NHS ester form. The surface not reacted with the antibody was inactivated by using 1 M ethanolamine solution (pH 8.5).
# PBS containing 5 μg/ml of CRP was spilled on the anti-CRP antibody chip with the chemical immobilization and the anti-CRP antibody chip with the immobilization by the peptide hybrid of 1a respectively at the speed of 10 μl/minute, followed by measuring the degree of antigen-antibody binding by surface plasmon resonance using Biacore 3000.
# [20] = target: T3, MIgG1 (Mus musculus, UniProt P01868); assay: SPR binding capacity, antibody isotypes; settings: CM-5 Au sensor chip
# T3 construct: purchased Sigma-Aldrich (USA)
# Method: as §1
# [21] = target: T2, rabbit IgG; assay: biochemical
# [22] = test system: goat originated antibody; assay: SPR binding capacity on peptide-hybrid-treated CM-5 Au sensor chip
# Method: as §1
# [23] = test system: mouse originated antibodies (mixed composition of MIgGs 1-3); assay: as above
# Method: as §1
# [24] = test system: HIgG (mixture of HIgG 1-HIgG 3); assay: Cy3-labeled antibody binding to glass plate surface-treated with peptide hybrid (fluorescence); design: species or system human; settings: fluorescence image
# Method: as §2
# [25] = Stability of peptide-treated chip surface to washing with 20 mM NaOH and reuse; format: physicochemical; settings: CM-5 chip, reused for antigen-antibody binding
# [26] = target: HIgG1; assay: SPR binding affinity (Biacore 3000, nonlinear regression); design: species or system human; settings: antibody 100-1,000 nM, CM-5 chip
# Method: The values were analyzed by nonlinear regression using BIAevaluation software equipped in Biacore 3000 to draw a theoretical line graph (FIG. 4a).
# T1 sequence (P01870 whole entry): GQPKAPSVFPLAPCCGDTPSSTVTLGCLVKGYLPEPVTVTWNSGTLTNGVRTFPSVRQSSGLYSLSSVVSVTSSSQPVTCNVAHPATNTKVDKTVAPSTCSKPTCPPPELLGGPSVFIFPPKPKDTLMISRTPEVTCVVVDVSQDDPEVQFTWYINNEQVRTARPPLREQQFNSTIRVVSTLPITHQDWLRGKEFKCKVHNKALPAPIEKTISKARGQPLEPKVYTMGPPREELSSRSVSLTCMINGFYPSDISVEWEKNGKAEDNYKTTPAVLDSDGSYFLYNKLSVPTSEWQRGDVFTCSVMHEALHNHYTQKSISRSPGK
# T2 sequence (P01870 whole entry): as above
molecule,measurement,setting,value
H2N(CH2CH2O)nCH2CH2COXDC*AWHLGELVWC*T-CONH2 [formula 1],binding to the different types of antibodies (SPR),[1],strongly attached
same,"binding to human originated antibodies (SPR), in words",[2],strongly bound
same,"binding to rabbit originated antibodies (SPR), in words",[3],strongly bound
"CC(C)C[C@@H]1NC(=O)[C@H](Cc2c[nH]cn2)NC(=O)[C@H](Cc2c[nH]c3ccccc23)NC(=O)[C@H](C)NC(=O)[C@@H](NC(=O)[C@H](CC(=O)O)NC(=O)[C@H](CC(=O)O)NC(=O)[C@H](CCC(=O)O)NC(=O)CCOCCOCCN)CSSC[C@@H](C(=O)N[C@H](C(N)=O)[C@@H](C)O)NC(=O)[C@H](Cc2c[nH]c3ccccc23)NC(=O)[C@H](C(C)C)NC(=O)[C@H](CC(C)C)NC(=O)[C@H](CCC(=O)O)NC(=O)CNC1=O [formula 1a, H2N(CH2CH2O)2CH2CH2COEDDC*AWHLGELVWC*T-CONH2]","binding to MIgG3 (SPR), in words",[4],to some degree
same,"binding to MIgG2 (SPR), in words",[5],hardly bound
same,"binding to MIgGA (SPR), in words",[6],hardly bound
same,binding of rabbit originated antibodies to glass plate,[7],bound very well
same,antibody binding capacity of surface-treated glass plate after storage,[8],maintain its antibody binding capacity
same,"binding to BSA (SPR), in words",[9],not bound
same,"binding to HIgG1 (SPR), in words",[10],particularly strongly bound; also recorded: effectively bound
same,"binding to HIgG3 (SPR), in words",[11],barely bound
same,"binding to HIgG2 (SPR), in words",[12],particularly strongly bound; also recorded: effectively bound
same,"binding to goat originated IgG, magnetic micro bead",[13],not
same,"binding to rabbit originated IgG, magnetic micro bead",[14],effectively bound
same,"binding to mouse originated IgG, magnetic micro bead",[15],not
same,"binding to human originated HIgG, magnetic micro bead",[16],effectively bound
same,binding of goat originated antibodies to glass plate,[17],not bound well
same,binding of mouse originated antibodies to glass plate,[18],not bound well
same,antigen-antibody binding capacity relative to chip with chemically immobilized anti-CRP antibody,[19],approximately 1.6 fold
same,"binding to MIgG1 (SPR), in words",[20],hardly bound
same,Kd,[21],0.305 µM
same,"binding to human originated antibodies (SPR), in words",[2],immobilized effectively
same,"SPR binding level, human originated IgG",[2]; saturated level,12000 RU
same,"binding to goat originated antibody (SPR), in words",[22],not successfully immobilized; also recorded: only at minimum level
same,"binding to mouse originated antibodies (SPR), in words",[23],not successfully immobilized; also recorded: only at minimum level
same,"binding to rabbit originated antibodies (SPR), in words",[3],immobilized effectively
same,"SPR binding level, rabbit originated IgG",[3]; saturated level,12000 RU
same,binding of human originated antibodies to glass plate,[24],bound very well
same,antibody binding capacity of the peptide-treated surface after washing with 20 mM NaOH,[25],without reducing the antibody binding capacity; also recorded: antibody binding capacity was not reduced
same,Kd,[26],0.085 µM
